Patent US20260262643A1, “HERBICIDAL BENZOXAZINES” (FMC CORPORATION, priority 2022, published 2026)

Tests used:
green foxtail [1] = assay: Test C preemergence; type: in vivo, Setaria viridis; conditions: 0 to 100 scale (0 no effect, 100 complete control); for Plant response rating, Foxtail, Green: Preemergence, 500 g ai/ha, visual rating after 10 days; for Foxtail, Green plant response rating: Test C, preemergence, 125 g ai/ha
In short: (§1)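 Seeds sown in loam soil–sand blend received a directed preemergence soil spray of test chemical in non-phytotoxic solvent with surfactant; postemergence plants (2–10 cm, one- to two-leaf stage) were sprayed with the same formulation. Greenhouse-held 10 days, then visually rated for injury versus untreated controls, 0 (no effect) to 100 (complete control).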

barnyardgrass [2] = assay: Test C preemergence; type: in vivo, Echinochloa crusgalli; conditions: 0 to 100 scale (0 no effect, 100 complete control); for Barnyardgrass plant response rating: 125 g ai/ha, preemergence; for Plant response rating, Barnyardgrass: Preemergence, 500 g ai/ha, visual rating after 10 days
In short: as §1

soybean [3] = assay: Test C preemergence; type: in vivo, Glycine max; conditions: 0 to 100 scale (0 no effect, 100 complete control); for Plant response rating, Soybean: Preemergence, 500 g ai/ha, visual rating after 10 days; for Soybean plant response rating: Test C, preemergence, 125 g ai/ha
In short: as §1

galium = assay: Test C postemergence; type: in vivo, Galium aparine; conditions: 10 days
In short: as §1

pigweed, palmer [4] = assay: Test C preemergence; type: in vivo, Amaranthus palmeri; conditions: 0 to 100 scale (0 no effect, 100 complete control); for Plant response rating, Pigweed, Palmer: Preemergence, 500 g ai/ha, visual rating after 10 days; for Pigweed, Palmer plant response rating: Test C, preemergence, 125 g ai/ha
In short: as §1

ryegrass, Italian [5] = assay: Test C preemergence; type: in vivo, Lolium multiflorum; conditions: 0 to 100 scale (0 no effect, 100 complete control); for Plant response rating, Ryegrass, Italian: Preemergence, 500 g ai/ha, visual rating after 10 days; for Ryegrass, Italian plant response rating: Test C, preemergence, 125 g ai/ha
In short: as §1

sedge, umbrella = assay: Test D flooded paddy test; type: in vivo, Cyperus difformis; conditions: 250 g ai/ha, applied to paddy water, visual rating after 13 to 14 days, scale 0 to 100 (0 no effect, 100 complete control)
In short: (§2)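 Plants grown to the 2-leaf stage; pots flooded to 3 cm above soil at treatment and held at that depth throughout. Test compounds applied directly to the paddy water. After 13 to 14 days in a greenhouse, response was rated visually versus controls on a 0 (no effect) to 100 (complete control) scale.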

barnyardgrass [6] = assay: Test C postemergence; type: in vivo, Echinochloa crusgalli; conditions: 10 days
In short: as §1

barnyardgrass [7] = assay: Test D flooded paddy test; type: in vivo, Echinochloa crus-galli; conditions: 250 g ai/ha, applied to paddy water, visual rating after 13 to 14 days, scale 0 to 100 (0 no effect, 100 complete control)
In short: as §2

wheat [8] = assay: Test C postemergence; type: in vivo, Triticum aestivum; conditions: 10 days
In short: as §1

corn [9] = assay: Test C preemergence; type: in vivo, Zea mays; conditions: 0 to 100 scale (0 no effect, 100 complete control); for Plant response rating, Corn: Preemergence, 500 g ai/ha, visual rating after 10 days; for Corn plant response rating: Test C, preemergence, 125 g ai/ha
In short: as §1

corn [10] = assay: Test C postemergence; type: in vivo, Zea mays; conditions: 10 days
In short: as §1

kochia [11] = assay: Test C postemergence; type: in vivo, Bassia scoparia; conditions: 10 days
In short: as §1

ragweed [12] = assay: Test C preemergence; type: in vivo, Ambrosia artemisiifolia; conditions: 0 to 100 scale (0 no effect, 100 complete control); for Plant response rating, Ragweed: Preemergence, 500 g ai/ha, visual rating after 10 days; for Ragweed plant response rating: Test C, preemergence, 125 g ai/ha
In short: as §1

green foxtail [13] = assay: Test C postemergence; type: in vivo, Setaria viridis; conditions: 10 days
In short: as §1

blackgrass [14] = assay: Test C preemergence; type: in vivo, Alopecurus myosuroides; conditions: 0 to 100 scale (0 no effect, 100 complete control); for Plant response rating, Blackgrass: Preemergence, 500 g ai/ha, visual rating after 10 days; for Blackgrass plant response rating: Test C, preemergence, 125 g ai/ha
In short: as §1

kochia [15] = assay: Test C preemergence; type: in vivo, Bassia scoparia; conditions: 0 to 100 scale (0 no effect, 100 complete control); for Plant response rating, Kochia: Preemergence, 500 g ai/ha, visual rating after 10 days; for Kochia plant response rating: Test C, preemergence, 125 g ai/ha
In short: as §1

ragweed [16] = assay: Test C postemergence; type: in vivo, Ambrosia artemisiifolia; conditions: 10 days
In short: as §1

wheat [17] = assay: Test C preemergence; type: in vivo, Triticum aestivum; conditions: 0 to 100 scale (0 no effect, 100 complete control); for Plant response rating, Wheat: Preemergence, 500 g ai/ha, visual rating after 10 days; for Wheat plant response rating: Test C, preemergence, 125 g ai/ha
In short: as §1

horseweed = assay: Test C postemergence; type: in vivo, Erigeron canadensis; conditions: 10 days
In short: as §1

soybean [18] = assay: Test C postemergence; type: in vivo, Glycine max; conditions: 10 days
In short: as §1

oat, wild [19] = assay: Test C postemergence; type: in vivo, Avena fatua; conditions: 10 days
In short: as §1

blackgrass [20] = assay: Test C postemergence; type: in vivo, Alopecurus myosuroides; conditions: 10 days
In short: as §1

rice = assay: Test D flooded paddy test; type: in vivo, Oryza sativa; conditions: 250 g ai/ha, applied to paddy water, visual rating after 13 to 14 days, scale 0 to 100 (0 no effect, 100 complete control)
In short: as §2

pigweed, palmer [21] = assay: Test C postemergence; type: in vivo, Amaranthus palmeri; conditions: 10 days
In short: as §1

ducksalad = assay: Test D flooded paddy test; type: in vivo, Heteranthera limosa; conditions: 250 g ai/ha, applied to paddy water, visual rating after 13 to 14 days, scale 0 to 100 (0 no effect, 100 complete control)
In short: as §2

ryegrass, Italian [22] = assay: Test C postemergence; type: in vivo, Lolium multiflorum; conditions: 10 days
In short: as §1

oat, wild [23] = assay: Test C preemergence; type: in vivo, Avena fatua; conditions: 0 to 100 scale (0 no effect, 100 complete control); for Plant response rating, Oat, Wild: Preemergence, 500 g ai/ha, visual rating after 10 days; for Oat, Wild plant response rating: Test C, preemergence, 125 g ai/ha
In short: as §1

[24] = 125 g ai/ha, postemergence, 0 to 100 scale, 0 no effect, 100 complete control
[25] = Postemergence, 500 g ai/ha, visual 0 to 100 scale (0 no effect, 100 complete control)

Structure (SMILES): C[C@H]1CN(C(=O)c2cc(-n3cnc(C4CC4)n3)cc3c2OCCO3)c2cccc(Cl)c2O1 [Compound 156]
- Plant response rating, Foxtail, Green (green foxtail [1]): 100
- Foxtail, Green plant response rating (green foxtail [1]): 100
- Barnyardgrass plant response rating (barnyardgrass [2]): 70
- Plant response rating, Barnyardgrass (barnyardgrass [2]): 90
- Plant response rating, Soybean (soybean [3]): 100
- Soybean plant response rating (soybean [3]): 80
- Plant response rating, Galium (galium; [24]): 100
- Plant response rating, Galium (galium; [25]): 100
- Plant response rating, Pigweed, Palmer (pigweed, palmer [4]): 100
- Pigweed, Palmer plant response rating (pigweed, palmer [4]): 100
- Plant response rating, Ryegrass, Italian (ryegrass, Italian [5]): 90
- Ryegrass, Italian plant response rating (ryegrass, Italian [5]): 60
- Plant response rating, Sedge, Umbrella (Flood) (sedge, umbrella): 95
- Plant response rating, Barnyardgrass (barnyardgrass [6]; [24]): 70
- Plant response rating, Barnyardgrass (barnyardgrass [6]; [25]): 90
- Plant response rating, Barnyardgrass (Flood) (barnyardgrass [7]): 40
- Plant response rating, Wheat (wheat [8]; [24]): 60
- Plant response rating, Wheat (wheat [8]; [25]): 80
- Plant response rating, Corn (corn [9]): 10
- Corn plant response rating (corn [9]): 0
- Plant response rating, Corn (corn [10]; [24]): 30
- Plant response rating, Corn (corn [10]; [25]): 50
- Plant response rating, Kochia (kochia [11]; [24]): 80
- Plant response rating, Kochia (kochia [11]; [25]): 90
- Plant response rating, Ragweed (ragweed [12]): 90
- Ragweed plant response rating (ragweed [12]): 70
- Plant response rating, Foxtail, Green (green foxtail [13]; [24]): 90
- Plant response rating, Foxtail, Green (green foxtail [13]; [25]): 90
- Plant response rating, Blackgrass (blackgrass [14]): 90
- Blackgrass plant response rating (blackgrass [14]): 50
- Plant response rating, Kochia (kochia [15]): 100
- Kochia plant response rating (kochia [15]): 80
- Plant response rating, Ragweed (ragweed [16]; [24]): 80
- Plant response rating, Ragweed (ragweed [16]; [25]): 100
- Plant response rating, Wheat (wheat [17]): 30
- Wheat plant response rating (wheat [17]): 10
- Plant response rating, Horseweed (horseweed; [24]): 50
- Plant response rating, Horseweed (horseweed; [25]): 60
- Plant response rating, Soybean (soybean [18]; [24]): 100
- Plant response rating, Soybean (soybean [18]; [25]): 100
- Plant response rating, Oat, Wild (oat, wild [19]; [24]): 20
- Plant response rating, Oat, Wild (oat, wild [19]; [25]): 30
- Plant response rating, Blackgrass (blackgrass [20]; [24]): 80
- Plant response rating, Blackgrass (blackgrass [20]; [25]): 90
- Plant response rating, Rice (Flood) (rice): 25
- Plant response rating, Pigweed, Palmer (pigweed, palmer [21]; [24]): 80
- Plant response rating, Pigweed, Palmer (pigweed, palmer [21]; [25]): 100
- Plant response rating, Ducksalad (Flood) (ducksalad): 65
- Plant response rating, Ryegrass, Italian (ryegrass, Italian [22]; [24]): 50
- Plant response rating, Ryegrass, Italian (ryegrass, Italian [22]; [25]): 90
- Plant response rating, Oat, Wild (oat, wild [23]): 40
- Oat, Wild plant response rating (oat, wild [23]): 20

Structure (SMILES): C[C@H]1CN(C(=O)c2cc(-n3cnc(C4CCC4)n3)cc3c2OCCO3)c2cccc(Cl)c2O1 [Compound 157]
- Plant response rating, Foxtail, Green (green foxtail [1]): 100
- Foxtail, Green plant response rating (green foxtail [1]): 100
- Barnyardgrass plant response rating (barnyardgrass [2]): 50
- Plant response rating, Barnyardgrass (barnyardgrass [2]): 90
- Plant response rating, Soybean (soybean [3]): 60
- Soybean plant response rating (soybean [3]): 50
- Plant response rating, Galium (galium; [24]): 100
- Plant response rating, Galium (galium; [25]): 100
- Plant response rating, Pigweed, Palmer (pigweed, palmer [4]): 100
- Pigweed, Palmer plant response rating (pigweed, palmer [4]): 100
- Plant response rating, Ryegrass, Italian (ryegrass, Italian [5]): 90
- Ryegrass, Italian plant response rating (ryegrass, Italian [5]): 70
- Plant response rating, Sedge, Umbrella (Flood) (sedge, umbrella): 45
- Plant response rating, Barnyardgrass (barnyardgrass [6]; [24]): 30
- Plant response rating, Barnyardgrass (barnyardgrass [6]; [25]): 70
- Plant response rating, Barnyardgrass (Flood) (barnyardgrass [7]): 15
- Plant response rating, Wheat (wheat [8]; [24]): 20
- Plant response rating, Wheat (wheat [8]; [25]): 30
- Plant response rating, Corn (corn [9]): 0
- Corn plant response rating (corn [9]): 0
- Plant response rating, Corn (corn [10]; [24]): 10
- Plant response rating, Corn (corn [10]; [25]): 20
- Plant response rating, Kochia (kochia [11]; [24]): 90
- Plant response rating, Kochia (kochia [11]; [25]): 100
- Plant response rating, Ragweed (ragweed [12]): 80
- Ragweed plant response rating (ragweed [12]): 90
- Plant response rating, Foxtail, Green (green foxtail [13]; [24]): 70
- Plant response rating, Foxtail, Green (green foxtail [13]; [25]): 90
- Plant response rating, Blackgrass (blackgrass [14]): 30
- Blackgrass plant response rating (blackgrass [14]): 30
- Plant response rating, Kochia (kochia [15]): 90
- Kochia plant response rating (kochia [15]): 20
- Plant response rating, Ragweed (ragweed [16]; [24]): 100
- Plant response rating, Ragweed (ragweed [16]; [25]): 100
- Plant response rating, Wheat (wheat [17]): 30
- Wheat plant response rating (wheat [17]): 0
- Plant response rating, Horseweed (horseweed; [24]): 30
- Plant response rating, Horseweed (horseweed; [25]): 90
- Plant response rating, Soybean (soybean [18]; [24]): 100
- Plant response rating, Soybean (soybean [18]; [25]): 100
- Plant response rating, Oat, Wild (oat, wild [19]; [24]): 20
- Plant response rating, Oat, Wild (oat, wild [19]; [25]): 20
- Plant response rating, Blackgrass (blackgrass [20]; [24]): 60
- Plant response rating, Blackgrass (blackgrass [20]; [25]): 70
- Plant response rating, Rice (Flood) (rice): 20
- Plant response rating, Pigweed, Palmer (pigweed, palmer [21]; [24]): 90
- Plant response rating, Pigweed, Palmer (pigweed, palmer [21]; [25]): 100
- Plant response rating, Ducksalad (Flood) (ducksalad): 0
- Plant response rating, Ryegrass, Italian (ryegrass, Italian [22]; [24]): 30
- Plant response rating, Ryegrass, Italian (ryegrass, Italian [22]; [25]): 80
- Plant response rating, Oat, Wild (oat, wild [23]): 50
- Oat, Wild plant response rating (oat, wild [23]): 0
